Test results reported in patent US6770147B2, “METHOD FOR THE PRODUCTION OF SUGAR OR SUGAR-CONTAINING PRODUCTS FROM SUGAR-CONTAINING VEGETABLE RAW MATERIALS, SUGAR AND SUGAR-CONTAINING PRODUCTS MADE BY THE METHOD, AND EXTRACTION SOLUTION FOR USE IN THE METHOD” (Zuckerforschung Tulln Gesellschaft m.b.H., priority 2000, dated 2004).

Assays:
[1] = tested on: osmotolerant microorganisms; assay: pH drop of syrup with 60% dry substances during storage at 22° C.; assay type: cell-based; conditions: 350 ppm
From the text: A further pH drop is to be avoided or at least delayed by the addition of an agent. The juice is supplemented with rosin acids at a concentration of 200 ppm in the form of a 20% sodium salt solution.

[2] = tested on: thermophilic bacteria; assay: pH drop (acid formation) of thermophilic bacteria culture: liquid nutrient medium inoculated with crude juice, 65° C.; assay type: cell-based, thermophilic bacteria from sugar beet crude juice; conditions: Example 9; for pH / ΔpH/h: 0.2 ml solution each added at pH 6.30, 6.28, 6.26, 6.24
Method: A liquid nutrient medium as used in microbiology and including 10 g bactopepton, 5 g meat extract, 5 g yeast extract, 1 g glucose, 1 g K2HPO4, 0.3 g KNO3, 0.1 g MgSO4*7H2O and 0.01 g FeSO4*7H2O per liter distilled water, is sterilized in the usual manner for 20 minutes at 120° C. and inoculated with 20 ml crude juice from large-scale sugar beet extraction in a 500 ml vessel heated at 65° C., with the pH being recorded on a recorder. […]
A liquid nutrient medium as used in Example 1 is inoculated with 40 ml crude juice from a sugar factory per liter, stirred at 65° C. and the pH drop is followed. A solution of 15 mg pure neoabietic acid (99%) per 1.5 ml ethanol is prepared.

With `C=O` [HCHO, formaldehyde] the ph drop ([1]; Observation time 0 days) was 0, the ph value ([1]; Observation time 0 days) was 8.44 and the ph drop ([1]; Observation time 1 days) was 0.39. The ph value ([1]; Observation time 1 days) was 8.05, the ph drop ([1]; Observation time 2 days) was 0.48 and the ph value ([1]; Observation time 2 days) was 7.96. For the same compound, the ph drop ([1]; Observation time 5 days) was 0.67 and the ph value ([1]; Observation time 5 days) was 7.77.
For `CC(C)=C1C=C2CCC3C(C)(C(=O)O)CCCC3(C)C2CC1` (stereo not drawn) [neoabietic acid], the “concentration at which the pH drop is stopped” value ([2]; ethanol solution, four additions of 0.2 ml, 40 ml crude juice per liter, 65° C.) was 8 mg per liter, the pH ([2]; Time 0 h) was 6.90 and the pH ([2]; Time 1 h) was 6.90. The ΔpH/h ([2]; Time 1 h) was 0.00 pH/h, the pH ([2]; Time 2 h) was 6.89 and the ΔpH/h ([2]; Time 2 h) was 0.01 pH/h. It also gave a pH ([2]; Time 3 h) of 6.87, a ΔpH/h ([2]; Time 3 h) of 0.02 pH/h and a pH ([2]; Time 3.5 h) of 6.86. The ΔpH/h ([2]; Time 3.5 h) was 0.02 pH/h, the pH ([2]; Time 4 h) was 6.85 and the ΔpH/h ([2]; Time 4 h) was 0.02 pH/h. The pH ([2]; Time 4.5 h) was 6.82, the ΔpH/h ([2]; Time 4.5 h) was 0.06 pH/h and the pH ([2]; Time 5 h) was 6.72. It also gave a ΔpH/h ([2]; Time 5 h) of 0.20 pH/h, a pH ([2]; Time 5.5 h) of 6.54 and a ΔpH/h ([2]; Time 5.5 h) of 0.36 pH/h. The pH ([2]; Time 5.8 h) was 6.30, the ΔpH/h ([2]; Time 5.8 h) was 0.80 pH/h and the pH ([2]; Time 6 h) was 6.24. For the same compound, the ΔpH/h ([2]; Time 6 h) was 0.30 pH/h, the pH ([2]; Time 6.5 h) was 6.24 and the ΔpH/h ([2]; Time 6.5 h) was 0.00 pH/h. The pH ([2]; Time 7 h) was 6.25, the ΔpH/h ([2]; Time 7 h) was −0.02 pH/h and the pH ([2]; Time 8 h) was 6.25. For the same compound, the ΔpH/h ([2]; Time 8 h) was 0.00 pH/h.
